Where two headings read alike, the source gives them in different places. Values belong to the compound of their own block, whether it stands above or below them. Bridge positions count the residues as written; N and C are the ends. Square brackets hold non-standard residues; d marks the D form. Peptide text beside a SMILES is read from it. * marks the point of attachment. Ileψ(thiazoline)Cys = CC[C@H](C)[C@H](N)C1=N[C@H](C(=O)*)CS1; dOrn = NCCC[C@@H](N)C(=O)O
Experiments:
[1] = test system: human diploid fibroblasts (HDFs); conditions: 30 min, 500 μM
[2] = test system: human diploid fibroblasts (HDFs); assay: Cell viability, apoptosis and necrosis by flow cytometry; assay type: cell-based; conditions: 880 mM
Protocol: HP is known to be toxic to eukaryotic cells, increasing apoptosis and necrosis and reducing cellular viability. […] HDF cultures were obtained from three different foreskins, which were pooled and cryopreserved together for the purpose of this study. Only diploid cells were used for all experiments. […] Simultaneous analyses of these parameters were performed in the same cell populations by flow cytometry using: […] B) Annexin V-FITC; and C) Propidium iodide. FIG. 4A-4C disclose percentage values expressed as mean±SD (n=3).

[3] = test system: B. atropheus spores, Pseudomonas aeruginosa, and Staphylococcus aureus; assay: Bacterial suspension assay, test organisms overall; assay type: cell-based; conditions: 33 Units/ml; over the time periods tested
Protocol: Dermacyn is a ready to use product, therefore performing dilutions during testing was not required.
A purchased spore suspension of B. atropheus at 2.5×10^7/ml was used for testing. In addition fresh suspensions of Pseudomonas aeruginosa, and Staphylococcus aureus were prepared and measured using a spectrophotometer to ensure the titer was acceptable
Nine microliters of test substance was added to 100 ul of microbe suspension. The test mixture was held at 20° C. for the contact times of 20 seconds, 5 minutes, and 20 minutes. […] (entire mixture) was added to 9.0 ml of neutralizer for 20 minutes (this is the original neutralization tube or ONT) 1.0 ml of the neutralized test mixture was plated on Tryptic Soy Agar in duplicate for the 5 minute and 20 minute contact times. Additional dilutions and spread plates were used for the 20 second time point, to achieve countable plates.
All plates were incubated at 30° C.-35° C. for a total of 3 days and were evaluated after each day of incubation.

[4] = test system: murine polychromatic erythrocytes

increase in number of 8-OHdG adducts relative to control-treated or ORP water solution-treated cells [1]: about 25 fold | GAPDH RT-PCR product (human cell cultures): little if any GAPDH RT-PCR product | RNA degradation, denaturing gel electrophoresis (human cell cultures): significant RNA degradation
SMILES: OO [HP, hydrogen peroxide]
Cell viability (7AAD) ([2]; 5 min): 55% | necrosis, cells incorporating propidium iodide ([2]; 5 min): 20% | Cell viability (7AAD) ([2]; 30 min): 5% | necrosis, cells incorporating propidium iodide ([2]; 30 min): 75%

SMILES: CC[C@H](C)[C@H](N)C1=N[C@H](C(=O)N[C@@H](CC(C)C)C(=O)N[C@H](CCC(=O)O)C(=O)N[C@H](C(=O)N[C@H]2CCCCNC(=O)[C@H](CC(N)=O)NC(=O)[C@@H](CC(=O)O)NC(=O)[C@H](Cc3cnc[nH]3)NC(=O)[C@@H](Cc3ccccc3)NC(=O)[C@H]([C@@H](C)CC)NC(=O)[C@@H](CCCN)NC2=O)[C@@H](C)CC)CS1 [Bacitracin] ({Ileψ(thiazoline)Cys}-L[dE]IK[dOrn]I[dF]H[dD]N; lactam 4-C)
lowering of bacterial or spore populations [3]: no evidence of lowering the bacterial or spore populations

SMILES: O=P1(N(CCCl)CCCl)NCCCO1 (centres unmarked) [cyclophosphamide]
PCE/NCE ratio ([4]; females, negative controls 1.02): 0.73 | number of polychromatic erythrocytes bearing micronuclei ([4]; males, negative controls 0.6): 11.0 | PCE/NCE ratio ([4]; males, negative controls 0.90): 0.77

Reference: US9782434B2, “Methods of treating or preventing inflammation and hypersensitivity with oxidative reductive potential water solution” (Oculus Innovative Sciences, Inc., priority 2006, dated 2017)
